Values quoted from earlier work in article PMC12356143 (RSC Medicinal Chemistry, 2025).

Assays:
M^pro WT = settings: literature value; cited from earlier work
FIPV M^pro = settings: literature value; cited from earlier work

Compound	K M (M^pro WT)	k cat (M^pro WT)	IC50 (FIPV M^pro) [nM]
Dabcyl-KTSAVLQ↓SGFRKME(Edans)-NH2 [Dabcyl-KTSAVLQ↓S GFRKME(Edans)-NH2]	4.6 × 10^−6 (lit. [23]) M	0.29 ± 0.03 (lit. [23]) s^−1	–
COc1cccc2[nH]c(C(=O)NC(CC3CC3)C(=O)NC(CC3CCNC3=O)C(O)S(=O)(=O)O)cc12 (stereo not shown) [compound 4]	–	–	60 ± 20
O=C(NC(CC1CC1)C(=O)NC(CC1CCNC1=O)C(O)S(=O)(=O)O)OCCc1cccc(Cl)c1 (stereo not shown) [compound 5]	–	–	50 ± 20
2-Abz-SVTLQ↓SGY^(NO2)R-OH	80 × 10^−6 (lit. [10]) M	2.25 ± 0.1 (lit. [10]) s^−1	–
CC(C)CC(NC(=O)OCc1ccccc1)C(=O)NC(CC1CCNC1=O)C(O)S(=O)(=O)O (stereo not shown) [GC376]	–	–	130 ± 20
